Results on 13 compounds are retold here after PubChem BioAssay (NCI).

Several values for one entry are separate records, joined by “and”; a condition that tells them apart may be missing. Equal entries are not always repeated.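 In this assay, cells in 96-well plates receive the compound at five concentrations for 48 hours. Endpoints are linearly interpolated between the surrounding concentrations. GI50 marks 50% less growth. TGI: total growth inhibition.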

Test systems include SK-MEL-28 melanoma; SF-268 CNS; DU-145 prostate; UACC-257 melanoma; 786-0 renal; UO-31 renal; SN12C renal; SW-620 colon; HT29 colon; NCI-H522 lung.
Holding throughout (experiment): inhibition of tumour cell growth, NCI panel, 48 h

Regarding `CC1(C)N=C(N)N=C(N)N1c1ccc(CCC(=O)Nc2cccc(S(=O)(=O)F)c2)cc1`, the GI50 with SK-MEL-28 melanoma is 81.1 µM; in the test with SF-268 CNS, 4.74 µM; with DU-145 prostate it was 5.81 µM; in the test on UACC-257 melanoma it was 4.09 µM; in the test on 786-0 renal, 3.89 µM; with UO-31 renal it was 13.2 µM. Moreover, the GI50 was 4.67 µM with SN12C renal, 5.87 µM in the test with SW-620 colon and 5.62 µM with HT29 colon. Further, the TGI with SK-MEL-28 melanoma, in the test on SF-268 CNS, in the test with DU-145 prostate, in the test on UACC-257 melanoma, with 786-0 renal and with UO-31 renal was greater than 100 µM throughout. Also, the TGI in the test with SN12C renal, in the test on SW-620 colon and with HT29 colon was greater than 100 µM throughout.
For `CC(=O)Nc1ccccc1S(=O)c1ccccc1` (stereo not drawn), the TGI in the test with SK-MEL-28 melanoma, in the test on SF-268 CNS, in the test with NCI-H522 lung, with UACC-257 melanoma, in the test on 786-0 renal and in the test on UO-31 renal was greater than 100 µM in each case. For the same compound, the TGI with SN12C renal, in the test on SW-620 colon and in the test with HT29 colon was greater than 100 µM in each case.
For `O=C1OC(=O)C2C1C1C(c3ccccc3)=C(c3ccccc3)C2(O)C2C(=O)OC(=O)C12` (stereo not drawn), the TGI in the test on SK-MEL-28 melanoma, with SF-268 CNS, in the test on NCI-H522 lung, in the test with UACC-257 melanoma, in the test with 786-0 renal and in the test with UO-31 renal was greater than 100 µM throughout. For the same compound, the TGI in the test on SN12C renal, in the test on SW-620 colon and with HT29 colon was greater than 100 µM each time.
For the compound `O=S1Cc2ccccc2CSS1` (stereo not drawn), the TGI in the test on SK-MEL-28 melanoma worked out at 26.8 µM; in the test with SF-268 CNS it was 74.2 µM; in the test with NCI-H522 lung, 19.4 µM; in the test with UACC-257 melanoma it was 29.1 µM; in the test with 786-0 renal it was 29.1 µM; with UO-31 renal, 32.6 µM. For the same compound, the TGI stood at 29.4 µM in the test with SN12C renal, 27.2 µM in the test on SW-620 colon and 32.1 µM in the test on HT29 colon.
In the case of `CCc1cccc(CC)c1NC(=O)C1=CNC(C)=C(C(=O)Nc2c(CC)cccc2CC)C1c1ccc(O)c(OC)c1` (stereo not drawn), the TGI was greater than 100 µM in the test on SK-MEL-28 melanoma; greater than 100 µM in the test with SF-268 CNS; 77.4 µM with NCI-H522 lung; 92.7 µM in the test with UACC-257 melanoma; greater than 100 µM in the test on 786-0 renal; greater than 100 µM in the test on UO-31 renal. The TGI with SN12C renal was greater than 100 µM; in the test on SW-620 colon, greater than 100 µM; in the test on HT29 colon, 80.2 µM.
Take `CN(C)c1ccc(/C=c2\sc3nnc(Cc4ccccc4)n3c2=O)cc1`: the GI50 in the test on SK-MEL-28 melanoma was greater than 100 µM; with SF-268 CNS, greater than 10 µM; with NCI-H522 lung, greater than 100 µM; in the test with UACC-257 melanoma, greater than 100 µM; with 786-0 renal it was greater than 100 µM; in the test on SN12C renal, greater than 100 µM. The GI50 in the test on SW-620 colon and in the test with HT29 colon was greater than 10 µM in each case. Besides, the TGI in the test on SK-MEL-28 melanoma is greater than 100 µM; with SF-268 CNS, > 10 µM and 57.8 µM; in the test with NCI-H522 lung it was greater than 100 µM; in the test on UACC-257 melanoma, greater than 100 µM; in the test on 786-0 renal, greater than 100 µM; in the test with UO-31 renal it was greater than 100 µM. Further, the TGI in the test with SN12C renal is greater than 100 µM; in the test on SW-620 colon it was > 10 µM and 29.2 µM; in the test with HT29 colon, greater than 100 µM.
Turning to `O=[N+]([O-])c1ccc2nc(=S)[nH]n2c1`, the TGI with SF-268 CNS, in the test with NCI-H522 lung, in the test on DU-145 prostate, with UACC-257 melanoma, with 786-0 renal and in the test on UO-31 renal was greater than 100 µM throughout. For the same compound, the TGI in the test with SN12C renal, in the test with SW-620 colon and with HT29 colon was greater than 100 µM in each case.
Turning to `CC(=O)Nc1ccc(OCC(O)CO)cc1` (stereo not drawn), the TGI in the test on SK-MEL-28 melanoma is greater than 100 µM; in the test on SF-268 CNS it was greater than 100 µM; in the test on NCI-H522 lung it was greater than 100 µM; in the test with UACC-257 melanoma, greater than 100 µM; in the test with 786-0 renal, 70.2 µM; in the test on UO-31 renal it was greater than 100 µM. Also, the TGI with SN12C renal is greater than 100 µM; in the test with SW-620 colon, 21.6 µM; in the test with HT29 colon, greater than 100 µM.
With `N#CC1C(=O)NC(=O)C(C#N)C1c1ccc(Cl)c(Cl)c1` (stereo not drawn), the TGI in the test with SK-MEL-28 melanoma was greater than 100 µM; with SF-268 CNS it was greater than 100 µM; in the test with NCI-H522 lung it was 38 µM; with DU-145 prostate, greater than 100 µM; in the test on UACC-257 melanoma, 86.7 µM; in the test on 786-0 renal, 41.7 µM. Further, the results for the TGI in the test with UO-31 renal, in the test on SW-620 colon and in the test on HT29 colon were 33.2 µM, 36.8 µM and 33 µM, respectively.
For the compound `CC1CCC2[C@@H](C)COC3O[C@]4(C)CCC1C32OO4` (stereo partly drawn), the TGI in the test with SK-MEL-28 melanoma, in the test with SF-268 CNS, in the test with NCI-H522 lung, with UACC-257 melanoma, in the test with 786-0 renal and in the test on UO-31 renal was greater than 100 µM each time. The TGI in the test on SN12C renal, in the test with SW-620 colon and in the test on HT29 colon was greater than 100 µM in each case.
With `C=C1C(OCCO)OC2O[C@]3(C)CCC4[C@H](C)CCC1C24OO3` (stereo partly drawn), the GI50 is greater than 100 µM with SK-MEL-28 melanoma; 43.4 µM with SF-268 CNS; 4.93 µM in the test on NCI-H522 lung; 36.3 µM in the test with DU-145 prostate; greater than 100 µM in the test with UACC-257 melanoma; 24.5 µM in the test on 786-0 renal. Moreover, the GI50 in the test with UO-31 renal was 2.78 µM; in the test with SW-620 colon, 10.9 µM; in the test on HT29 colon, 7.54 µM. Moreover, the TGI with SK-MEL-28 melanoma is greater than 100 µM; in the test on SF-268 CNS, greater than 100 µM; in the test with NCI-H522 lung, 19.2 µM; in the test with DU-145 prostate, greater than 100 µM; in the test with UACC-257 melanoma it was greater than 100 µM; in the test with 786-0 renal it was greater than 100 µM. Further, the TGI is 10.2 µM with UO-31 renal, greater than 100 µM in the test on SW-620 colon and greater than 100 µM with HT29 colon.
Take `CN(C)c1ccc(/C=N/NC(=O)c2cnc3ccccc3c2)cc1`: the TGI in the test with SK-MEL-28 melanoma was greater than 100 µM; with SF-268 CNS it was 53.3 µM; in the test on NCI-H522 lung, greater than 100 µM; in the test on DU-145 prostate, greater than 100 µM; with UACC-257 melanoma it was greater than 100 µM; in the test with 786-0 renal, greater than 100 µM. Also, the TGI with UO-31 renal, in the test on SN12C renal and in the test on SW-620 colon was greater than 100 µM in each case.
In the case of `C/C(=N\NS(=O)(=O)c1ccccc1)c1ccc[n+]([O-])n1`, the TGI in the test with SK-MEL-28 melanoma is greater than 100 µM; with SF-268 CNS, greater than 100 µM; in the test with NCI-H522 lung, 79 µM; in the test with UACC-257 melanoma it was greater than 100 µM; in the test on 786-0 renal, greater than 100 µM; in the test on UO-31 renal it was greater than 100 µM. For the same compound, the TGI in the test with SN12C renal, in the test on SW-620 colon and in the test on HT29 colon was greater than 100 µM throughout.
